What was measured:
Format in all cases: biochemical
JAK3 = JAK3 (Homo sapiens (Human), UniProt P52333); experiment: JAK enzymatic assay (peptide mobility shift), JAK3; settings: recombinant JAK3 1 nM, JAKtide peptide, 90 minutes
JAK1 = JAK1 (Homo sapiens (Human), UniProt P23458); experiment: JAK enzymatic assay (peptide mobility shift), JAK1; settings: recombinant JAK1 20 nM, IRS-1 peptide, 240 minutes
JAK2 = JAK2 (Homo sapiens (Human), UniProt O60674); experiment: JAK enzymatic assay (peptide mobility shift), JAK2; settings: recombinant JAK2 2 nM, JAKtide peptide, 150 minutes
JAK2, sequence (O60674 808-1132): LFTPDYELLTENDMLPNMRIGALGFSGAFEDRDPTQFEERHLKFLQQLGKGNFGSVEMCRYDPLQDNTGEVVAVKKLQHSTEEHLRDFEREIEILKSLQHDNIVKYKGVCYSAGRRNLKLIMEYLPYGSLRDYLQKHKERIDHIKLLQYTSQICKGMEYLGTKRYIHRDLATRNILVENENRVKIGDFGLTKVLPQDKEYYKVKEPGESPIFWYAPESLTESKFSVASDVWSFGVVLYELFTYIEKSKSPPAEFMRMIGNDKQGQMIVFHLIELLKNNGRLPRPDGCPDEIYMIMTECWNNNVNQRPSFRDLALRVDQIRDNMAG

JAK3, sequence (P52333 781-1124): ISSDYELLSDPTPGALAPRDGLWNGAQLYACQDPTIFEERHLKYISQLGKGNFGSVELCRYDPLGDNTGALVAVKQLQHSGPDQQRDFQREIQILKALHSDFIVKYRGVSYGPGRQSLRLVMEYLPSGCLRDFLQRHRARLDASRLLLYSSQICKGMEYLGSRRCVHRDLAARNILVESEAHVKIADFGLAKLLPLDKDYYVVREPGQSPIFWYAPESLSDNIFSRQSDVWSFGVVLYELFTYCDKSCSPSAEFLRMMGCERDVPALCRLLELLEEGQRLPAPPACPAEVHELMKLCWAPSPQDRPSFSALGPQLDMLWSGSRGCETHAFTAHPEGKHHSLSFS
JAK1, sequence (P23458 whole entry): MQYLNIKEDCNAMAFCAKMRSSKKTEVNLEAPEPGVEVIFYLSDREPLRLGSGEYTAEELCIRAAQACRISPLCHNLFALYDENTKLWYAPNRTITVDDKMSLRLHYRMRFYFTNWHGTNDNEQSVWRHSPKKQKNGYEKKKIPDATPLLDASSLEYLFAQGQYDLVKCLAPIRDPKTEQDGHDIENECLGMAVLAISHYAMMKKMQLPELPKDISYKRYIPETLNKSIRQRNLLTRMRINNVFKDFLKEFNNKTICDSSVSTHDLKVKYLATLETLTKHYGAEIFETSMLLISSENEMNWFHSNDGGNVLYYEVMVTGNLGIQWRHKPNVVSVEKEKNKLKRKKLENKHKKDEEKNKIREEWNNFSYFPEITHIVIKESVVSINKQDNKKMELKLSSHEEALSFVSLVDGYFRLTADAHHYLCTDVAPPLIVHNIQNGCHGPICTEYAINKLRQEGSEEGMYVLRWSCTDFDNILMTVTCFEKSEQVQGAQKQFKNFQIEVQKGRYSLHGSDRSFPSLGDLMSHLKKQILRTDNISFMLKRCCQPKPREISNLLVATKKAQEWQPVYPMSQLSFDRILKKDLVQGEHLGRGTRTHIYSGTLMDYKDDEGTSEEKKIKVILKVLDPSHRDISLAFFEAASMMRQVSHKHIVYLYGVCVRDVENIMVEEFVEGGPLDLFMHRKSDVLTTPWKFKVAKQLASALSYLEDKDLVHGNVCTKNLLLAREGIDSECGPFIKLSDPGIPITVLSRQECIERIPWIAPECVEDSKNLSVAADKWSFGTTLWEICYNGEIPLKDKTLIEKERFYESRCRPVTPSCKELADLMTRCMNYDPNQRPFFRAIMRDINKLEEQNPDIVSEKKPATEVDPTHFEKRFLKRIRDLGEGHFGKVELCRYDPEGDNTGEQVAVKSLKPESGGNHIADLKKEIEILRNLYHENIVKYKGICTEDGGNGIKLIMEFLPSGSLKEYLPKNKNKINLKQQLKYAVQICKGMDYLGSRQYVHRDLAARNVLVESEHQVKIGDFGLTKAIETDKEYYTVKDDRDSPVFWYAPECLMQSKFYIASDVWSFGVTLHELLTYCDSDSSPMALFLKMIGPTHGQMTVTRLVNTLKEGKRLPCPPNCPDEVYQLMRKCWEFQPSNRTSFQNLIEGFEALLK

C[C@H]1CN(S(=O)(=O)C[C@H]2CC[C@H](N(C)c3ncnc4[nH]ccc34)CC2)C[C@@H]1CO [Example 135, {(3r,4r)-4-methyl-1-[({trans-4-[methyl(7H-pyrrolo[2,3-d]pyrimidin-4-yl)amino]cyclohexyl}methyl)sulfonyl]pyrrolidin-3-yl}methanol]
IC50 (JAK3): 0.198 nM | IC50 (JAK1): 0.00199 nM | IC50 (JAK2): 0.0165 nM

CN1CCN(S(=O)(=O)C[C@H]2CC[C@H](N(C)c3ncnc4[nH]ccc34)CC2)CC1 [Example 136, N-methyl-N-(trans-4-{[(4-methylpiperazin-1-yl)sulfonyl]methyl}cyclohexyl)-7H-pyrrolo[2,3-d]pyrimidin-4-amine]
IC50 (JAK3): 1.29 nM | IC50 (JAK1): 0.0245 nM | IC50 (JAK2): 0.109 nM

CC(C)COC1CCCN(S(=O)(=O)C[C@H]2CC[C@H](N(C)c3ncnc4[nH]ccc34)CC2)C1 (stereo partly drawn) [Example 138, N-(trans-4-{[(3-isobutoxypiperidin-1-yl)sulfonyl]methyl}cyclohexyl)-N-methyl-7H-pyrrolo[2,3-d]pyrimidin-4-amine]
IC50 (JAK3): 0.132 nM | IC50 (JAK1): 0.00133 nM | IC50 (JAK2): 0.00767 nM

COCCOC1CCCN(S(=O)(=O)C[C@H]2CC[C@H](N(C)c3ncnc4[nH]ccc34)CC2)C1 (stereo partly drawn) [Example 139, N-[trans-4-({[3-(2-methoxyethoxy)piperidin-1-yl]sulfonyl}methyl)cyclohexyl]-N-methyl-7H-pyrrolo[2,3-d]pyrimidin-4-amine]
IC50 (JAK3): 0.0368 nM | IC50 (JAK1): 0.00125 nM | IC50 (JAK2): 0.00405 nM

CCOP(=O)(OCC)O[C@@H]1CCCN(S(=O)(=O)C[C@H]2CC[C@H](N(C)c3ncnc4[nH]ccc34)CC2)C1 [Example 140, Diethyl (3R)-1-[({trans-4-[methyl(7H-pyrrolo[2,3-d]pyrimidin-4-yl)amino]cyclohexyl}methyl)sulfonyl]piperidin-3-yl phosphate]
IC50 (JAK3): 1.8 nM | IC50 (JAK1): 0.0235 nM | IC50 (JAK2): 0.116 nM

CN(c1ncnc2[nH]ccc12)[C@H]1CC[C@H](CS(=O)(=O)N2CCC[C@@H](OP(=O)(O)O)C2)CC1 [Example 141, (3R)-1-[({trans-4-[methyl(7H-pyrrolo[2,3-d]pyrimidin-4-yl)amino]cyclohexyl}methyl)sulfonyl]piperidin-3-yl dihydrogen phosphate]
IC50 (JAK3): 0.768 nM | IC50 (JAK1): 0.0263 nM | IC50 (JAK2): 0.106 nM

— patent US8633206B2, “Pyrrolo[2,3-D]pyrimidine compounds” (Pfizer Inc., priority 2009, dated 2014)
